The source of these data is patent US9907847B2, “Pyrrolopyrimidines as therapeutic agents for the treatment of diseases” (GlaxoSmithKline LLC, priority 2012, dated 2018).

One experiment relates to IFN-α. Description: Induction of interferon-α using fresh human whole blood (WB). In kind it is cell-based. The note with it: three donors, overnight incubation, response as % of 2 μM resiquimod control, read-out: mean pEC50 for IFN-α (converted). The procedure:
(§1) Assay for the Induction of Interferon-[…] and TNF-[…] Using Fresh Human Whole Blood (WB)
(§2) Compounds were prepared at 100× required concentration in DMSO in flat-bottom microtitre plates at a volume of 1.5 μL. Columns 1-10 contained a 1 in 4 serial dilution of the test compound. Included on each plate was a serial dilution of the TLR7/8 agonist resiquimod as a standard and Column 11 contained 1.5 μl of 200 μM resiquimod (giving a 2 μM final concentration, used to define the approximate maximal response to resiquimod). Each compound was assayed in duplicate for each donor.
(§3) Blood samples from three human donors were collected into sodium heparin (10 U/ml). 150 μl of whole Blood was dispensed into Col 1 to 11 of assay plates containing 1.5 μl of test compound or standard in DMSO. Plates were placed in an incubator overnight (37° C., 95% air, 5% CO2). Following the overnight incubation, plates were removed from the incubator & mixed on an orbital shaker for approximately 1 minute. 100 μl of 0.9% saline was added to each well and the plates mixed again on an orbital shaker. Plates were then centrifuged (2500 rpm, 10 mins), after which a sample of plasma was removed using a Biomek FX and assayed for both IFN-α and TNF-α using the MSD (Mesoscale Discovery) electrochemiluminescence assay platform. The IFN-α assay was carried out similarly to that described above. The TNF-α assay was carried out as per kit instructions (Cat No K111BHB).
(§4) Cytokine released was expressed as a percentage of the 2 μM resiquimod control (column 11). This percentage was plotted against compound concentration and the pEC50 for the response determined by non-linear least squares curve fitting. For the IFN-α responses, generally a 4 parameter logistic model was selected. For the TNF-α responses where a clear maximum response was obtained (i.e. a well defined plateau in the response was observed) then a 4 parameter model was generally used. If the upper asymptote of the curve wasn't well defined then the curve fitting was generally constrained to a maximal response of 100% (i.e. to the response to 2 μM resiquimod) or to the response of the highest concentration tested if this was greater than the resiquimod response. Some curves were bell shaped for one or both cytokines and the cytokine data on the down slope of the bell shaped response (i.e. concentrations above those giving the maximal response) were generally excluded from the fit, usually with the exception of the concentration immediately above the peak response. Curve fitting thus concentrated on the up slope of the dose response curve.

The next experiment has as its system TNF-α. Description: Induction of TNF-α using fresh human whole blood (WB). In kind it is cell-based. Particulars: three donors, overnight incubation, response as % of 2 μM resiquimod control, read-out: mean pEC50 for TNF-α (converted). The procedure:
as §1, §2, §3, §4

Molecules are shown by their SMILES. Counter-ions that a name gives are not always drawn.

In the case of `CCCCc1nc(N)c2[nH]c(C)c(CCCCCCN3CCC3)c2n1` [Example 15, 7-(6-(Azetidin-1-yl)hexyl)-2-butyl-6-methyl-5H-pyrrolo[3,2-d]pyrimidin-4-amine], the EC50 was no more than 5.01 µM in the experiment with IFN-α and no less than 5.01 µM in the experiment on TNF-α.
On to `CCCCc1nc(N)c2[nH]cc(CCCCCN3CCC[C@@H]3C)c2n1` [Example 34, (S)-2-Butyl-7-(5-(2-methylpyrrolidin-1-yl)pentyl)-5H-pyrrolo[3,2-d]pyrimidin-4-amine], for which the EC50 was no more than 5.01 µM with IFN-α and no less than 5.01 µM with TNF-α.
For `CCCCc1nc(N)c2[nH]c(C)c(CCCCCN3CC(F)C3)c2n1` [Example 42, 2-Butyl-7-(5-(3-fluoroazetidin-1-yl)pentyl)-6-methyl-5H-pyrrolo[3,2-d]pyrimidin-4-amine], the EC50 was no more than 5.01 µM with IFN-α and no less than 5.01 µM in the experiment with TNF-α.
On to `CCCCc1nc(N)c2[nH]cc(CCCCCCN3CCCC3)c2n1` [Example 10, 2-Butyl-7-(6-(pyrrolidin-1-yl)hexyl)-5H-pyrrolo[3,2-d]pyrimidin-4-amine], for which the EC50 with IFN-α is no more than 5.01 µM; in the experiment on TNF-α it was no less than 5.01 µM.
For `COCCc1nc(N)c2[nH]cc(CCCCCN3CC[C@H](F)C3)c2n1` [Example 27, (S)-7-(5-(3-Fluoropyrrolidin-1-yl)pentyl)-2-(2-methoxyethyl)-5H-pyrrolo[3,2-d]pyrimidin-4-amine formate], the EC50 in the experiment on IFN-α is no more than 5.01 µM; in the experiment with TNF-α, no less than 5.01 µM.
`CCCCc1nc(N)c2[nH]c(C)c(CCCCCN3CC[C@@H](F)C3)c2n1` [Example 41, (R)-2-Butyl-7-(5-(3-fluoropyrrolidin-1-yl)pentyl)-6-methyl-5H-pyrrolo[3,2-d]pyrimidin-4-amine]: the EC50 in the experiment with IFN-α was no more than 5.01 µM; with TNF-α it was no less than 5.01 µM.
As for `CCCCc1nc(N)c2[nH]c(C)c(CCCCN3CCCCC3)c2n1` [Example 8, 2-Butyl-6-methyl-7-(4-(piperidin-1-yl)butyl)-5H-pyrrolo[3,2-d]pyrimidin-4-amine], the EC50 was no more than 5.01 µM in the experiment with IFN-α and no less than 5.01 µM in the experiment with TNF-α.
In the same order, the values of `CCCCCc1nc(N)c2[nH]cc(CCCCCCN3CCCCC3)c2n1` [Example 11, 2-Pentyl-7-(6-(piperidin-1-yl)hexyl)-5H-pyrrolo[3,2-d]pyrimidin-4-amine] are no more than 5.01 µM and no less than 5.01 µM.
Take `COCCc1nc(N)c2[nH]cc(CCCCCN3CCC(F)CC3)c2n1` [Example 22, 7-(5-(4-Fluoropiperidin-1-yl)pentyl)-2-(2-methoxyethyl)-5H-pyrrolo[3,2-d]pyrimidin-4-amine]: the EC50 in the experiment with IFN-α is no more than 5.01 µM; in the experiment on TNF-α, no less than 5.01 µM.
In the same order, the values of `CCCCc1nc(N)c2[nH]cc(CCCCCN3CCCCC3)c2n1` [Example 2, 2-Butyl-7-(5-(piperidin-1-yl)pentyl)-5H-pyrrolo[3,2-d]pyrimidin-4-amine] are no more than 5.01 µM and no less than 5.01 µM.
As for `CCCCc1nc(N)c2[nH]cc(CCCCCN3CCC3)c2n1` [Example 17, 7-(5-(Azetidin-1-yl)pentyl)-2-butyl-5H-pyrrolo[3,2-d]pyrimidin-4-amine], the figures for the EC50 in the experiment on IFN-α and in the experiment on TNF-α were no more than 5.01 µM and no less than 5.01 µM, respectively.
In the same order, the values of `CCCCc1nc(N)c2[nH]cc(CCCCCN3CC[C@H](O)C3)c2n1` [Example 28, (S)-1-(5-(4-Amino-2-butyl-5H-pyrrolo[3,2-d]pyrimidin-7-yl)pentyl)pyrrolidin-3-ol] are no more than 5.01 µM and no less than 5.01 µM.
Consider `CCCCc1nc(N)c2[nH]c(C)c(CCCCCCN3CCCC3)c2n1` [Example 14, 2-Butyl-6-methyl-7-(6-(pyrrolidin-1-yl)hexyl)-5H-pyrrolo[3,2-d]pyrimidin-4-amine], for which the EC50 in the experiment on IFN-α is no more than 5.01 µM; with TNF-α, no less than 5.01 µM.
As to `CCCCc1nc(N)c2[nH]c(C)c(CCCCCN3CCC3)c2n1` [Example 18, 7-(5-(Azetidin-1-yl)pentyl)-2-butyl-6-methyl-5H-pyrrolo[3,2-d]pyrimidin-4-amine], the figures for the EC50 in the experiment on IFN-α and in the experiment on TNF-α were no more than 5.01 µM and no less than 5.01 µM, respectively.
As for `CCCCc1nc(N)c2[nH]cc(CCCCCN3CC(O)C3)c2n1` [Example 29, 1-(5-(4-Amino-2-butyl-5H-pyrrolo[3,2-d]pyrimidin-7-yl)pentyl)azetidin-3-ol formate], the EC50 is no more than 5.01 µM with IFN-α and no less than 5.01 µM with TNF-α.
Regarding `CCOCc1nc(N)c2[nH]cc(CCCCCCN3CCCCC3)c2n1` [Example 4, 2-(Ethoxymethyl)-7-(6-(piperidin-1-yl)hexyl)-5H-pyrrolo[3,2-d]pyrimidin-4-amine], the EC50 in the experiment on IFN-α was no more than 5.01 µM; with TNF-α, no less than 5.01 µM.
`CCCCc1nc(N)c2[nH]cc(CCCCCN3CCCC3)c2n1` [Example 9, 2-Butyl-7-(5-(pyrrolidin-1-yl)pentyl)-5H-pyrrolo[3,2-d]pyrimidin-4-amine formate]: the EC50 with IFN-α was no more than 5.01 µM; in the experiment with TNF-α, no less than 5.01 µM.
For `COCCc1nc(N)c2[nH]cc(CCCCCN3CCCC3)c2n1` [Example 43, 2-(2-Methoxyethyl)-7-(5-(pyrrolidin-1-yl)pentyl)-5H-pyrrolo[3,2-d]pyrimidin-4-amine], the values for the EC50 in the experiment on IFN-α and in the experiment on TNF-α were no more than 5.01 µM and no less than 5.01 µM, respectively.
In the same order, the values of `CCCCc1nc(N)c2[nH]cc(CCCCCCN3CCCCC3)c2n1` [Example 1, 2-Butyl-7-(6-(piperidin-1-yl)hexyl)-5H-pyrrolo[3,2-d]pyrimidin-4-amine formate] are no more than 5.01 µM and no less than 5.01 µM.
With `CCCCc1nc(N)c2[nH]cc(CCCCCN3CCC(F)CC3)c2n1` [Example 21, 2-Butyl-7-(5-(4-fluoropiperidin-1-yl)pentyl)-5H-pyrrolo[3,2-d]pyrimidin-4-amine], the EC50 in the experiment with IFN-α was no more than 5.01 µM; with TNF-α, no less than 5.01 µM.
Turning to `CCCCc1nc(N)c2[nH]c(C)c(CCCCCN3CCCC3)c2n1` [Example 16, 2-Butyl-6-methyl-7-(5-(pyrrolidin-1-yl)pentyl)-5H-pyrrolo[3,2-d]pyrimidin-4-amine], the EC50 with IFN-α is no more than 5.01 µM; with TNF-α, no less than 5.01 µM.
For `CCCCc1nc(N)c2[nH]c(C)c(CCCCCN3CCCCC3)c2n1` [Example 7, 2-Butyl-6-methyl-7-(5-(piperidin-1-yl)pentyl)-5H-pyrrolo[3,2-d]pyrimidin-4-amine], the EC50 in the experiment on IFN-α was no more than 5.01 µM; in the experiment on TNF-α, no less than 5.01 µM.
In the same order, the values of `CCCCc1nc(N)c2[nH]cc(CCCCCN3CCCCCC3)c2n1` [Example 12, 7-(5-(Azepan-1-yl)pentyl)-2-butyl-5H-pyrrolo[3,2-d]pyrimidin-4-amine] are no more than 5.01 µM and no less than 5.01 µM.
As for `CCCCc1nc(N)c2[nH]cc(CCCCCN3CC[C@@H](F)C3)c2n1` [Example 24, (R)-2-Butyl-7-(5-(3-fluoropyrrolidin-1-yl)pentyl)-5H-pyrrolo[3,2-d]pyrimidin-4-amine], the EC50 in the experiment with IFN-α is no more than 5.01 µM; in the experiment on TNF-α, no less than 5.01 µM.
Regarding `COCCc1nc(N)c2[nH]cc(CCCCCN3CC[C@@H](F)C3)c2n1` [Example 26, (R)-7-(5-(3-Fluoropyrrolidin-1-yl)pentyl)-2-(2-methoxyethyl)-5H-pyrrolo[3,2-d]pyrimidin-4-amine formate], the results for the EC50 in the experiment on IFN-α and in the experiment with TNF-α were no more than 5.01 µM and no less than 5.01 µM, respectively.
Regarding `CCCCc1nc(N)c2[nH]cc(CCCCN3CCCCC3)c2n1` [Example 3, 2-Butyl-7-(4-(piperidin-1-yl)butyl)-5H-pyrrolo[3,2-d]pyrimidin-4-amine], the values for the EC50 in the experiment with IFN-α and with TNF-α were no more than 5.01 µM and no less than 5.01 µM, respectively.
As for `CCCCc1nc(N)c2[nH]cc(CCCCCCN3CCC(F)CC3)c2n1` [Example 31, 2-Butyl-7-(6-(4-fluoropiperidin-1-yl)hexyl)-5H-pyrrolo[3,2-d]pyrimidin-4-amine], the results for the EC50 in the experiment on IFN-α and in the experiment with TNF-α were no more than 5.01 µM and no less than 5.01 µM, respectively.
On to `CCCCc1nc(N)c2[nH]cc(CCCCCCN3CC[C@@H](F)C3)c2n1` [Example 32, (R)-2-Butyl-7-(6-(3-fluoropyrrolidin-1-yl)hexyl)-5H-pyrrolo[3,2-d]pyrimidin-4-amine], for which the figures for the EC50 in the experiment on IFN-α and with TNF-α were no more than 5.01 µM and no less than 5.01 µM, respectively.
For `CCCCc1nc(N)c2[nH]cc(CCCCCN3CCC(O)CC3)c2n1` [Example 23, 1-(5-(4-Amino-2-butyl-5H-pyrrolo[3,2-d]pyrimidin-7-yl)pentyl)piperidin-4-ol], the EC50 in the experiment with IFN-α was no more than 5.01 µM; with TNF-α, no less than 5.01 µM.
In the same order, the values of `CCCCc1nc(N)c2[nH]c(C)c(CCCCCCN3CCCCC3)c2n1` [Example 6, 2-Butyl-6-methyl-7-(6-(piperidin-1-yl)hexyl)-5H-pyrrolo[3,2-d]pyrimidin-4-amine] are no more than 5.01 µM and no less than 5.01 µM.
